Patent publication US9266892B2, “Fused pyrazoles as FGFR inhibitors” (Incyte Corporation, priority 2012, dated 2016)

Tests used:
Type in all cases: biochemical
FGFR3 = target: T1, FGFR3 (Homo sapiens, UniProt P22607); test: FGFR Enzymatic Assay (FRET peptide phosphorylation), FGFR3; conditions: ATP 140 μM, 25° C. for 1 hr
T1 construct: purchased Millipore
Procedure: (§1) The inhibitor potency of the Example compounds was measured in an enzyme assay that measures peptide phosphorylation using FRET measurements to detect product formation. Inhibitors were serially diluted in DMSO and a volume of 0.5 μL was transferred to the wells of a 384-well plate. For FGFR3, a 10 μL volume of FGFR3 enzyme (Millipore) diluted in assay buffer (50 mM HEPES, 10 mM MgCl2, 1 mM EGTA, 0.01% Tween-20, 5 mM DTT, pH 7.5) was added to the plate and pre-incubated for 5-10 minutes. Appropriate controls (enzyme blank and enzyme with no inhibitor) were included on the plate. The assay was initiated by the addition of a 10 μL solution containing biotinylated EQEDEPEGDYFEWLE peptide substrate (SEQ ID NO: 1) and ATP (final concentrations of 500 nM and 140 μM respectively) in assay buffer to the wells. The plate was incubated at 25° C. for 1 hr. The reactions were ended with the addition of 10 μL/well of quench solution (50 mM Tris, 150 mM NaCl, 0.5 mg/mL BSA, pH˜7.8, 30 mM EDTA with Perkin Elmer Lance Detection Reagents at 3.75 nM Eu-antibody PY20 and 180 nM APC-Streptavidin). The plate was allowed to equilibrate for 1 hour before scanning the wells on a PheraStar plate reader (BMG Labtech). The enzymes were purchased from Millipore or Invitrogen.
(§2) GraphPad prism3 was used to analyze the data. The IC50 values were derived by fitting the data to the equation for a sigmoidal dose-response with a variable slope. Y=Bottom+(Top−Bottom)/(1+10^((Log IC50−X)*HillSlope)) where X is the logarithm of concentration and Y is the response.

FGFR1 = target: T2, FGFR1 (Homo sapiens, UniProt P11362); test: FGFR Enzymatic Assay (FRET peptide phosphorylation), FGFR1; conditions: FGFR1 0.02 nM, ATP 210 μM
T2 construct: purchased Millipore or Invitrogen
T2 sequence (P11362 22-822): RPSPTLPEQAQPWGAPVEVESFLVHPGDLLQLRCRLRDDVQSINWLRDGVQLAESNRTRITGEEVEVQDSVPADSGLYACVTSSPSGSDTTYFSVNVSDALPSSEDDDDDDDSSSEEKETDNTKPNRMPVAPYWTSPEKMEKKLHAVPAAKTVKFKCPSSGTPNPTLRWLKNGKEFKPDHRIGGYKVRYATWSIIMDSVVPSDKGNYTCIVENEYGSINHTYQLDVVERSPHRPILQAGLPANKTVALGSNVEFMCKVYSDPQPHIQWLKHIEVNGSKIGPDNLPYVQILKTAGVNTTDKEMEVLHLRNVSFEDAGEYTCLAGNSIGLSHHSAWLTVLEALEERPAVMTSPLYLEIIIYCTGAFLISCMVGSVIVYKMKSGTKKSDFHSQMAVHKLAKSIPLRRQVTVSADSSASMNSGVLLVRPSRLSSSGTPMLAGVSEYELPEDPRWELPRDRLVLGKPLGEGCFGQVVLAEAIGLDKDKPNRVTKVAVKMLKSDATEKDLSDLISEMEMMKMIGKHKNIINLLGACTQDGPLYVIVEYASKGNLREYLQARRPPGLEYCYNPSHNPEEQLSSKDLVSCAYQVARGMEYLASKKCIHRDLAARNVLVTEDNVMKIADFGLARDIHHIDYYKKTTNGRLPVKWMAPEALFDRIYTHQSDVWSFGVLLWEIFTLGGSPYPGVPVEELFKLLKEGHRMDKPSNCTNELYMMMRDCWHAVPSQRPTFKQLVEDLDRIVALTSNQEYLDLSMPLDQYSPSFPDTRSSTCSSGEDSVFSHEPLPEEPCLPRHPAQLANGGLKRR
Procedure: as §1
(§3) FGFR1 and FGFR2 were measured under equivalent conditions with the following changes in enzyme and ATP concentrations: FGFR1, 0.02 nM and 210 μM, respectively and FGFR2, 0.01 nM and 100 μM, respectively.
as §2

FGFR2 = target: T3, FGFR2 (Homo sapiens, UniProt P21802); test: FGFR Enzymatic Assay (FRET peptide phosphorylation), FGFR2; conditions: FGFR2 0.01 nM, ATP 100 μM
T3 construct: purchased Millipore or Invitrogen
T3 sequence (P21802 22-821): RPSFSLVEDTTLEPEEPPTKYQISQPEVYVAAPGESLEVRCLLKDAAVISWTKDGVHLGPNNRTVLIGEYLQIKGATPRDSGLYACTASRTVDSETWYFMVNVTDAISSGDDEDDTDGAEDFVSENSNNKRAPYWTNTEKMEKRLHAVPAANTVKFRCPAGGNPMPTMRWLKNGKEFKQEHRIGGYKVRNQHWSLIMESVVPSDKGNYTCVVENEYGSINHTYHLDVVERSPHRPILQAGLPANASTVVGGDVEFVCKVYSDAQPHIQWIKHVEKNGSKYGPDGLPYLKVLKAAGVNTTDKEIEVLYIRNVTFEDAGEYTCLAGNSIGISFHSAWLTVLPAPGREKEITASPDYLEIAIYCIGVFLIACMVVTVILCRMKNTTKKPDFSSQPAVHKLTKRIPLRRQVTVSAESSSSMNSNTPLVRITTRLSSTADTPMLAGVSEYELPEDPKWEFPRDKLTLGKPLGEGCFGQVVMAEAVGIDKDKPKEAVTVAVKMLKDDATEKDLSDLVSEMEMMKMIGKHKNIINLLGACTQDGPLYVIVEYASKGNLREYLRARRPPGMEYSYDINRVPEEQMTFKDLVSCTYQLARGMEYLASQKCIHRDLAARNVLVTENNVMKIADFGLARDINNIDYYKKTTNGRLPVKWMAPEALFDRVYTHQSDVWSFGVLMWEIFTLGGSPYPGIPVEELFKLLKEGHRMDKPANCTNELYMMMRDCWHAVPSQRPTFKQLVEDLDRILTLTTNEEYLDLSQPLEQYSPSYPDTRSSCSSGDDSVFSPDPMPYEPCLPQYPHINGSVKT
Procedure: as §1, §3, §2

T1 sequence (P22607 23-806): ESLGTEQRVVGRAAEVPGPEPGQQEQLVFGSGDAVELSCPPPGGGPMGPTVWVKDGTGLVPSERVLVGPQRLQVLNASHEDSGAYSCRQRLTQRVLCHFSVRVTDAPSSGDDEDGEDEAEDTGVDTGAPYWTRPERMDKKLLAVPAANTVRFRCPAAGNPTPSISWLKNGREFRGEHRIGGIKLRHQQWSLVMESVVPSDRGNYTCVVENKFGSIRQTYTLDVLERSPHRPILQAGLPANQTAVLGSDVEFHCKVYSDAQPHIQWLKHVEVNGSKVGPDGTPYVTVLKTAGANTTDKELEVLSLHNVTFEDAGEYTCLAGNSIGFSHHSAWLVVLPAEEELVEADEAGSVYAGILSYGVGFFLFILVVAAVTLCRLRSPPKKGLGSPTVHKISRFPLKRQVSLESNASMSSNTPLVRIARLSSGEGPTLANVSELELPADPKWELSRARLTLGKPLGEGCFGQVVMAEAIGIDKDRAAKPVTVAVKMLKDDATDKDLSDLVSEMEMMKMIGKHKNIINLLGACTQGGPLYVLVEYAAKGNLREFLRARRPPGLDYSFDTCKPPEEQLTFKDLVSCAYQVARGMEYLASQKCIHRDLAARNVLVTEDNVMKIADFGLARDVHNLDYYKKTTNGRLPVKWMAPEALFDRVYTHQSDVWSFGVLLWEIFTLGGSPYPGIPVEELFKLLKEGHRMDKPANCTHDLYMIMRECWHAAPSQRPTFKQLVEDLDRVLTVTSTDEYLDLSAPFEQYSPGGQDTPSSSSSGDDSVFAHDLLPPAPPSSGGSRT

IC50 (FGFR3) | IC50 (FGFR1) | IC50 (FGFR2) | SMILES
< 100 nM | < 100 nM | < 100 nM | COc1cc(OC)c(Cl)c(-c2cc3[nH]nc(-c4ccc(OCC(=O)N(C)C)c(C)c4)c3cn2)c1Cl [Example 29, 2-{4-[6-(2,6-Dichloro-3,5-dimethoxyphenyl)-1H-pyrazolo[4,3-c]pyridin-3-yl]-2-methylphenoxy}-N,N-dimethylacetamide]
< 100 nM | < 100 nM | < 100 nM | COc1cc(OC)c(Cl)c(-c2cc3[nH]nc(-c4ccc5c(c4)NC(=O)CO5)c3cn2)c1Cl [Example 30, 6-[6-(2,6-Dichloro-3,5-dimethoxyphenyl)-1H-pyrazolo[4,3-c]pyridin-3-yl]-2H-1,4-benzoxazin-3(4H)-one]
< 100 nM | < 100 nM | 100 to 500 nM | COc1cc(OC)c(Cl)c(-c2cc3[nH]nc(-c4ccc5c(c4)N(C)C(=O)CO5)c3cn2)c1Cl [Example 31, 6-[6-(2,6-Dichloro-3,5-dimethoxyphenyl)-1H-pyrazolo[4,3-c]pyridin-3-yl]-4-methyl-2H-1,4-benzoxazin-3(4H)-one]
< 100 nM | < 100 nM | < 100 nM | COc1cc(OC)c(Cl)c(-c2cc3[nH]nc(-c4ccc5c(c4)COC5=O)c3cn2)c1Cl [Example 32, 5-[6-(2,6-Dichloro-3,5-dimethoxyphenyl)-1H-pyrazolo[4,3-c]pyridin-3-yl]-2-benzofuran-1(3H)-one]
< 100 nM | < 100 nM | < 100 nM | COc1cc(OC)c(Cl)c(-c2cc3[nH]nc(-c4cnn(C(C)C#N)c4)c3cn2)c1Cl (stereo not drawn) [Example 33, 2-{4-[6-(2,6-Dichloro-3,5-dimethoxyphenyl)-1H-pyrazolo[4,3-c]pyridin-3-yl]-1H-pyrazol-1-yl}propanenitrile]
< 100 nM | < 100 nM | < 100 nM | COc1cc(OC)c(Cl)c(-c2cc3[nH]nc(-c4ccc(C(O)C(=O)N(C)C)c(F)c4)c3cn2)c1Cl (stereo not drawn) [Example 34, 2-{4-[6-(2,6-Dichloro-3,5-dimethoxyphenyl)-1H-pyrazolo[4,3-c]pyridin-3-yl]-2-fluorophenyl}-2-hydroxy-N,N-dimethylacetamide]
< 100 nM | < 100 nM | < 100 nM | COc1cc(OC)c(Cl)c(-c2cc3[nH]nc(-c4ccc(OCCN(C)C)cc4)c3cn2)c1Cl [Example 35, 2-{4-[6-(2,6-Dichloro-3,5-dimethoxyphenyl)-1H-pyrazolo[4,3-c]pyridin-3-yl]phenoxy}-N,N-dimethylethanamine]
< 100 nM | < 100 nM | < 100 nM | CNC(=O)Cn1cc(-c2n[nH]c3cc(-c4c(Cl)c(OC)cc(OC)c4Cl)ncc23)cn1 [Example 36, 2-{4-[6-(2,6-Dichloro-3,5-dimethoxyphenyl)-1H-pyrazolo[4,3-c]pyridin-3-yl]-1H-pyrazol-1-yl}-N-methylacetamide]
< 100 nM | < 100 nM | < 100 nM | COc1cc(OC)c(Cl)c(-c2cc3[nH]nc(-c4cnn(CC(=O)N(C)C)c4)c3cn2)c1Cl [Example 37, 2-{4-[6-(2,6-Dichloro-3,5-dimethoxyphenyl)-1H-pyrazolo[4,3-c]pyridin-3-yl]-1H-pyrazol-1-yl}-N,N-dimethylacetamide]
< 100 nM | < 100 nM | < 100 nM | COc1cc(OC)c(Cl)c(-c2cc3[nH]nc(-c4cnn(CC(=O)NC5CC5)c4)c3cn2)c1Cl [Example 38, N-Cyclopropyl-2-{4-[6-(2,6-dichloro-3,5-dimethoxyphenyl)-1H-pyrazolo[4,3-c]pyridin-3-yl]-1H-pyrazol-1-yl}acetamide]
< 100 nM | < 100 nM | < 100 nM | COc1cc(OC)c(Cl)c(-c2cc3[nH]nc(-c4cnn(CC(=O)N5CC(O)C5)c4)c3cn2)c1Cl [Example 39, 1-({4-[6-(2,6-Dichloro-3,5-dimethoxyphenyl)-1H-pyrazolo[4,3-c]pyridin-3-yl]-1H-pyrazol-1-yl}acetyl)azetidin-3-ol]
< 100 nM | < 100 nM | < 100 nM | COc1cc(OC)c(Cl)c(-c2cc3[nH]nc(-c4cnn(CC(=O)N5CCOCC5)c4)c3cn2)c1Cl [Example 40, 6-(2,6-Dichloro-3,5-dimethoxyphenyl)-3-[1-(2-morpholin-4-yl-2-oxoethyl)-1H-pyrazol-4-yl]-1H-pyrazolo[4,3-c]pyridine]
< 100 nM | < 100 nM | < 100 nM | COc1cc(OC)c(Cl)c(-c2cc3[nH]nc(-c4cnn(CC(=O)N5CCN(C)CC5)c4)c3cn2)c1Cl [Example 41, 6-(2,6-Dichloro-3,5-dimethoxyphenyl)-3-{1-[2-(4-methylpiperazin-1-yl)-2-oxoethyl]-1H-pyrazol-4-yl}-1H-pyrazolo[4,3-c]pyridine]

More lines, now with the values behind:

SMILES | IC50 (FGFR3) | IC50 (FGFR1) | IC50 (FGFR2)
COc1cc(OC)c(F)c(-c2ncc3c(-c4ccc(N5CCN(C)CC5)nc4)n[nH]c3n2)c1F [Example 18, 6-(2,6-Difluoro-3,5-dimethoxyphenyl)-3-[6-(4-methylpiperazin-1-yl)pyridin-3-yl]-1H-pyrazolo[3,4-d]pyrimidine] | < 100 nM | < 100 nM | < 100 nM
COc1cc(OC)c(F)c(-c2ncc3c(-c4ccnc(N5CCN(C)CC5)c4)n[nH]c3n2)c1F [Example 19, 6-(2,6-Difluoro-3,5-dimethoxyphenyl)-3-[2-(4-methylpiperazin-1-yl)pyridin-4-yl]-1H-pyrazolo[3,4-d]pyrimidine] | < 100 nM | < 100 nM | < 100 nM
COc1cc(OC)c(F)c(-c2ncc3c(-c4ccc(OCCN(C)C)cc4)n[nH]c3n2)c1F [Example 20, 2-{4-[6-(2,6-Difluoro-3,5-dimethoxyphenyl)-1H-pyrazolo[3,4-d]pyrimidin-3-yl]phenoxy}-N,N-dimethylethanamine] | < 100 nM | < 100 nM | < 100 nM
COc1cc(OC)c(F)c(-c2ncc3c(-c4ccc5c(c4)CN(C4CC4)C5=O)n[nH]c3n2)c1F [Example 21, 2-Cyclopropyl-5-[6-(2,6-difluoro-3,5-dimethoxyphenyl)-1H-pyrazolo[3,4-d]pyrimidin-3-yl]isoindolin-1-one] | < 100 nM | < 100 nM | < 100 nM
COc1cc(OC)c(Cl)c(-c2ncc3c(-c4ccc5c(c4)CN([C@H]4CC[C@@H](O)CC4)C5=O)n[nH]c3n2)c1Cl [Example 22, 5-[6-(2,6-Dichloro-3,5-dimethoxyphenyl)-1H-pyrazolo[3,4-d]pyrimidin-3-yl]-2-(cis-4-hydroxycyclohexyl)isoindolin-1-one] | < 100 nM | < 100 nM | < 100 nM
COc1cc(OC)c(Cl)c(-c2ncc3c(-c4ccc5c(c4)CN([C@H]4CC[C@H](O)CC4)C5=O)n[nH]c3n2)c1Cl [Example 23, 5-[6-(2,6-Dichloro-3,5-dimethoxyphenyl)-1H-pyrazolo[3,4-d]pyrimidin-3-yl]-2-(trans-4-hydroxycyclohexyl)isoindolin-1-one] | < 100 nM | < 100 nM | < 100 nM
COc1cc(OC)c(F)c(-c2cc3[nH]nc(-c4ccc5c(c4)CC(C(=O)N4CCN(C)CC4)O5)c3cn2)c1F (stereo not drawn) [Example 24, 6-(2,6-Difluoro-3,5-dimethoxyphenyl)-3-{2-[(4-methylpiperazin-1-yl)carbonyl]-2,3-dihydro-1-benzofuran-5-yl}-1H-pyrazolo[4,3-c]pyridine] | < 100 nM | < 100 nM | < 100 nM
COc1cc(OC)c(F)c(-c2cc3[nH]nc(-c4ccc(N5CCN(C)CC5)cc4)c3cn2)c1F [Example 25, 6-(2,6-Difluoro-3,5-dimethoxyphenyl)-3-[4-(4-methylpiperazin-1-yl)phenyl]-1H-pyrazolo[4,3-c]pyridine] | < 100 nM | < 100 nM | < 100 nM
COc1cc(OC)c(F)c(-c2cc3[nH]nc(-c4ccc(N5CCN(C)CC5)nc4)c3cn2)c1F [Example 26, 6-(2,6-Difluoro-3,5-dimethoxyphenyl)-3-[6-(4-methylpiperazin-1-yl)pyridin-3-yl]-1H-pyrazolo[4,3-c]pyridine] | < 100 nM | < 100 nM | < 100 nM
COc1cc(OC)c(F)c(-c2cc3[nH]nc(-c4ccnc(N5CCN(C)CC5)c4)c3cn2)c1F [Example 27, 6-(2,6-Difluoro-3,5-dimethoxyphenyl)-3-[2-(4-methylpiperazin-1-yl)pyridin-4-yl]-1H-pyrazolo[4,3-c]pyridine] | < 100 nM | < 100 nM | < 100 nM
COc1cc(OC)c(Cl)c(-c2cc3[nH]nc(-c4ccc5c(c4)CN(C4CC4)C5=O)c3cn2)c1Cl [Example 28, 2-Cyclopropyl-5-[6-(2,6-dichloro-3,5-dimethoxyphenyl)-1H-pyrazolo[4,3-c]pyridin-3-yl]isoindolin-1-one] | < 100 nM | < 100 nM | < 100 nM
